Measured values published in patent US5336673A, “3-substituted cephem compounds” (priority 1990, dated 1994).
≈ marks a conversion by molar mass, not a printed value.

Experiments:
Escherichia coli DC 2 = assay: Antibacterial activity, MIC by Agar dilution method, standard test strain 9; type: cell-based; details: Escherichia coli, DC2, 18 h
Protocol: (§1) The antibacterial activity was determined by an Agar dilution method as described below.
(§2) That is, the two-fold serial dilutions of the antibacterial compounds (1000 μg compound/ml) were prepared and dispersed in Muller Hinton Agar in a petri dish to a concentration of 100~0.002 μg/ml. The culture broths of standard test strains were inoculated on the medium to a concentration 10^7 CFU/ml, and incubated at 37° C. for 18 hours. The concentration of compounds(I) at which the strains were not grown was regarded as minimum inhibition concentration (MIC).
(§3) The results of antibacterial activity test of the representative examples of the compound (I) against 20 standard test strains shown in terms of MIC were indicated in Table 1.

[1] = target: T1, β-lactamase from Enterobacter cloacae P99 (Enterobacter cloacae, UniProt P05364); assay: Stability against β-lactamase, relative hydrolysis; type: biochemical; details: Enterobacter cloacae P99 enzyme; 100 μM; relative(percentage), Cephaloridine taken as 100; OD at 260 nm
T1 construct: directly isolated from Enterobacter cloacae P99, E. coli TEM and Citrobacter freundii; endogenous in cells; host or cells: Enterobacter cloacae P99
Protocol: The β-lactamases employed in the test were directly isolated from Enterobacter cloacae P99, E. coli TEM and Citrobacter freundii, and the antibiotics for comparison were Cephaloridine, Cephradine, Cefoperazone and Cefotaxime.
The relative hydrolysis of various compounds were calculated relative to the OD of Cephaloridine.

[2] = test system: Streptococcus pyogenes A 77; assay: Antibacterial activity, MIC by Agar dilution method, standard test strain 2; type: cell-based; details: A77, 10^7 CFU/ml, 37° C., 18 hours
Protocol: as §1, §2, §3
2. Streptococcus pyogenes A 77

Acute toxcity test = details: in vivo, male ICR-mouse, after 1 week
Protocol: Further, in order to illustrate the usefulness of the compounds (I) as a drug, compounds of Examples 12, 18 and 36 were tested for acute toxcity by using 4 weeks-old male ICR-mouse as a test animal.
the compounds were dissolved in physiological saline and phosphate buffered solution (pH 7.0), or if they were […], suspended in carboxymethylcellulose or gum Arabic and then mixed with phosphate buffered solution.
The solution or mixture was administered to the tested animals intravenously or subcutaneously and, after 1 week, the number of surviving animals was calculated.

[3] = test system: Enterobacter cloacae 1321E; assay: Antibacterial activity, MIC by Agar dilution method, standard test strain 20; type: cell-based; details: Enterobacter cloacae, 1321E, 18 h
Protocol: as §1, §2, §3
20. Enterobacter cloacae 1321E

[4] = test system: Streptococcus pyogenes A 308; assay: Antibacterial activity, MIC by Agar dilution method, standard test strain 1; type: cell-based; details: A308, 10^7 CFU/ml, 37° C., 18 hours
Protocol: as §1, §2, §3
1. Streptococcus pyogenes A 308

[5] = test system: Klebsiella aerogenes 1522E; assay: Antibacterial activity, MIC by Agar dilution method, standard test strain 18; type: cell-based; details: Klebsiella aerogenes, 1522E, 18 h
Protocol: as §1, §2, §3
18. Klebsiella aerogenes 1522E

[6] = test system: Streptococcus pyogenes 77A; assay: Treatment effect on systemic infection model; type: in vivo; details: im, read-out: PD50
Protocol: The antibacterial activity test on systemic infection model was carried out using the compound of Example 18 as follows: 0.3 ml of diluted solution containing lethal dose of strain was administered intraperitoneally to the test animal, and then 5 to 0.078 mg/kg of compound was administered intramuscularly.

[7] = test system: Pseudomonas aeruginosa 9027; assay: Antibacterial activity, MIC by Agar dilution method, standard test strain 12; type: cell-based; details: 10^7 CFU/ml, 37° C., 18 hours
Protocol: as §1, §2, §3
12. Pseudomonas aeruginosa 9027

[8] = test system: Staphylococcus aureus SG 511; assay: Antibacterial activity, MIC by Agar dilution method, standard test strain 4; type: cell-based; details: SG511, 10^7 CFU/ml, 37° C., 18 hours
Protocol: as §1, §2, §3
4. Staphylococcus aureus SG 511

[9] = test system: Streptococcus faecium MD 86; assay: Antibacterial activity, MIC by Agar dilution method, standard test strain 3; type: cell-based; details: Enterococcus faecium, MD86, 10^7 CFU/ml, 37° C., 18 hours
Protocol: as §1, §2, §3
3. Streptococcus faecium MD 86

Escherichia coli TEM = assay: Antibacterial activity, MIC by Agar dilution method, standard test strain 10; type: cell-based; details: Escherichia coli TEM; 10^7 CFU/ml, 37° C., 18 hours; read-out: MIC
Protocol: as §1, §2, §3

Klebsiella oxytoca 1082E = assay: Antibacterial activity, MIC by Agar dilution method, standard test strain 17; type: cell-based; details: 10^7 CFU/ml, 37° C., 18 hours
Protocol: as §1, §2, §3

[10] = test system: Pseudomonas aeruginosa 1771; assay: Antibacterial activity, MIC by Agar dilution method, standard test strain 14; type: cell-based; details: 10^7 CFU/ml, 37° C., 18 hours
Protocol: as §1, §2, §3
14. Pseudomonas aeruginosa 1771

[11] = test system: Gram-positive strains, for example, Staphylococcus aureus; assay: Antibacterial activity against Gram-positive strains (summary in words); type: cell-based; details: e.g. Staphylococcus aureus resistant to third-generation cephalosporins
Protocol: as §1, §2

[12] = test system: Pseudomonas aeruginosa 1771M; assay: Antibacterial activity, MIC by Agar dilution method, standard test strain 15; type: cell-based; details: 18 h
Protocol: as §1, §2, §3
15. Pseudomonas aeruginosa 1771M

T1 sequence (P05364 21-381): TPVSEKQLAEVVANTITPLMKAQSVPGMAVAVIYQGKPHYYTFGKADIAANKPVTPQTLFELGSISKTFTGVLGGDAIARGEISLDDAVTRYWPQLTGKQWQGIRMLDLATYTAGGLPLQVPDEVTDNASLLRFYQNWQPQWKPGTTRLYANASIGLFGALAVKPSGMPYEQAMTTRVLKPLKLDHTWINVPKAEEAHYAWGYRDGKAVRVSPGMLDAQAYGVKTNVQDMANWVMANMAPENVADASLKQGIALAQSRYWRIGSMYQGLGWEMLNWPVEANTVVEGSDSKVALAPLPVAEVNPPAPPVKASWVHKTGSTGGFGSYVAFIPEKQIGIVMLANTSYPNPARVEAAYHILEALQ

In the case of `CON=C(C(=O)NC1C(=O)N2C(C(=O)[O-])=C(C[n+]3nn(N)c4ccccc43)CSC12)c1csc(N)n1` [Example 18, (6R,7R)-7-[(Z)-2-(2-aminothiazol-4-yl)-2-methoxyiminoacetamido]-3-[(1-aminobenzotriazol-3-ium)methyl]-ceph-3-em-4-carboxylate], the MIC (Escherichia coli DC 2) is reported as 0.025 µg/mL (≈ 0.0472 µM), the “Relative hydrolysis by β-lactamase” value [1] is reported as 0.0 and the MIC [2] is reported as 0.004 µg/mL (≈ 0.00755 µM). It also gave an LD50 at 168 h (Acute toxcity test; sc, Subcutaneous administration) of over 6000 mg/kg, an LD50 at 168 h (Acute toxcity test; Intravenous administration) of over 4000 mg/kg and an MIC [3] of 0.007 µg/mL (≈ 0.0132 µM). The MIC [4] was 0.004 µg/mL (≈ 0.00755 µM), the MIC [5] was 0.025 µg/mL (≈ 0.0472 µM) and the ED50 [6] was 0.27 mg/kg. It also gave an MIC [7] of 3.12 µg/mL (≈ 5.9 µM), an MIC [8] of 0.391 µg/mL (≈ 0.738 µM) and an MIC [9] of over 100 µg/mL. The MIC (Escherichia coli TEM) was 0.013 µg/mL (≈ 0.0245 µM), the MIC (Klebsiella oxytoca 1082E) was 0.049 µg/mL (≈ 0.0925 µM) and the MIC [10] was 1.56 µg/mL (≈ 2.95 µM). For the same compound, the “antibacterial activity (in words)” value [11] was “strong activity” and the MIC [12] was 0.781 µg/mL (≈ 1.47 µM).
